# Test results published in patent US20250295683A1, “HETEROCYCLIC COMPOUND, PREPARATION METHOD THEREFOR AND APPLICATION THEREOF” (SICHUAN KELUN-BIOTECH BIOPHARMACEUTICAL CO., LTD., priority 2022, published 2025).
# Experiments:
# whole blood of rat = test: Fibrinolysis effect shown by thromboelastography (TEG) with u-PA; conditions: for Ma (strength of the blood clot formed): rat whole blood; for Thrombolytic activity compared with the positive compound: according to the Ma values and thromboelastograms
# Procedure: Main Instruments and Reagents: thromboelastography TEG (Udibio); urokinase-type plasminogen activator (u-PA) (Aladdin); reagent 1 (the main component is kaolin); reagent 2 (main component is calcium chloride).
# • (1) Test group setting: uPA group: urokinase-type plasminogen activator (u-PA) (1000 U/ml); positive compound/compound 2-1/compound 2-2 group: test compound (200 μM)+u-PA (1000 U/ml); blank group: vehicle. • (2) Formulation of compound solution: the compound was formulated using a 0.5 mg/ml trometamol solution to obtain a 4 mM mother solution, adjusted to pH 9, and diluted to a 2 mM 10× mother solution. The final test concentration was 200 μM. u-PA was formulated as a 50,000 U/ml mother solution using normal saline, and diluted to a 10,000 U/ml 10× mother solution. The final test concentration was 1000 U/ml. • (3) Test: 100 μL of u-PA was added to a sample cup (containing reagent 1) containing 800 μL of the whole blood of rat (anticoagulated with sodium citrate), 100 μL of the test compound was added, and the cup was inverted to mix well. 340 μL of the sample from the sample cup was added to the reaction cup containing 20 μL of reagent 2, and the instrument was allowed to run. The results are shown in Table 2-1, Table 2-2, Table 2-3, FIG. 1, FIG. 2 and FIG. 3. The compound concentration as shown in Table 2-1, Table 2-2, FIG. 1 and FIG. 2 was 200 μM; and the compound concentration as shown in Table 2-3 and FIG. 3 was 100 μM.
# Plasminogen (Glu-Typ) = target: T1, Plasminogen (Glu-Typ) (Homo sapiens, UniProt P00747); test: Activation effect of the compounds on plasminogen (Glu-Typ), u-PA / VLK-pNA kinetic assay; assay type: biochemical; conditions: for Activation multiples (5 min): slope of A405 vs t^2 divided by slope of control group; for Activation potency on plasminogen compared with the positive compound: at the same concentration
# T1 construct: Plasminogen (Glu-Typ) (sigma); purchased sigma (plasminogen); Aladdin (u-PA)
# T1 sequence (P00747 20-810 limits assumed): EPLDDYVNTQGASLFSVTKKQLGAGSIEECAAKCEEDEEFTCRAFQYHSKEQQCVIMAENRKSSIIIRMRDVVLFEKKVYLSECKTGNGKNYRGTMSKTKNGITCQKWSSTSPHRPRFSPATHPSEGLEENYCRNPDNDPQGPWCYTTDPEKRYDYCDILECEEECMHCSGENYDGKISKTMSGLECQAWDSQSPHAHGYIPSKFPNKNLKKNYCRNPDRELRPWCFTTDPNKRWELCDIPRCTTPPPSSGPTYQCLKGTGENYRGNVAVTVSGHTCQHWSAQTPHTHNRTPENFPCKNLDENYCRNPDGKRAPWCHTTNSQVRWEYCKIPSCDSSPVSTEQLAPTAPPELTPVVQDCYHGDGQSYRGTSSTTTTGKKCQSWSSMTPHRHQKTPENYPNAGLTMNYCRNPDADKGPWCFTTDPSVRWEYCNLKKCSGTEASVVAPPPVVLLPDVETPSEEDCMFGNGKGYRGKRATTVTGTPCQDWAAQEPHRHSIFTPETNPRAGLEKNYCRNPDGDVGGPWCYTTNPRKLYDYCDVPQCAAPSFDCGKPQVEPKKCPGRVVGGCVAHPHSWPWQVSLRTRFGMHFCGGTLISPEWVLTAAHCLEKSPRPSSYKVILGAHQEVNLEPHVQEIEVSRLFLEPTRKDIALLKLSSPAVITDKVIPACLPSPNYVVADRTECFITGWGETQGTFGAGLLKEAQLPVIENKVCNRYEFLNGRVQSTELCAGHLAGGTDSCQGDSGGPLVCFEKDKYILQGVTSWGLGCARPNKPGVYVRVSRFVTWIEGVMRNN
# Procedure: (1) Formulation of Compounds The test compounds of the present invention and the positive compound are all set at three concentration points, i.e., 200 μM, 150 μM and 100 μM, respectively; the final concentration in DMSO was 2.5%.
# Plasminogen (Glu-Typ) (sigma); urokinase-type plasminogen activator (u-PA) (Aladdin); vLK-pNA (absin); Multifunctional microplate reader (Thermo).
# Plasminogen, the urokinase-type Plasminogen activator (u-PA) and VLK-pNA were formulated in a buffer [Tris-HCl (50 mM, pH 7.4)+NaCl (100 mM)+Tween-80 (0.01%)] to obtain mother solutions at concentrations of 100 nM (5×), 100 IU/ml (5×), and 5 mM (5×), respectively. 20 μl of 5× Plasminogen (Glu-Typ), 20 μl of 5× urokinase-type Plasminogen activator (u-PA) and 20 μl of 5×VLK-pNA were added to a 96-well plate. After mixing uniformly, 40 μl of the test compounds or positive compound were added to the 96-well plate, and a control group (no compound) was set up. The mixture was uniformly mixed well. The kinetic detection was performed using a Thermo multifunctional microplate reader, the detection wavelength was 405 nm, and the activation factor was calculated.
# The following results were obtained by plotting the absorbance value at 405 nm (A405) versus time squared (t^2), using the slope of the curve for analysis, and calculating the activation multiples by dividing the slope of the compound group by the slope of the control group (see Table 1-1 and Table 1-2).
# [1] = stroke resulting from acute occlusion of large vessels; cited from earlier work
# [2] = in vivo; cited from earlier work
# [3] = Table 2-1, compound 200 μM + u-PA 1000 U/ml
# [4] = Table 2-2, compound 200 μM + u-PA 1000 U/ml
# [5] = Table 2-3, compound 100 μM + u-PA 1000 U/ml
Compound,Ma (strength of the blood clot formed) (whole blood of rat; [3]) [mm],Thrombolytic activity compared with the positive compound (whole blood of rat),"Activation multiples (5 min) (Plasminogen (Glu-Typ); Table 1-1, compound 100 μM)","Activation multiples (5 min) (Plasminogen (Glu-Typ); Table 1-1, compound 150 μM)","Activation multiples (5 min) (Plasminogen (Glu-Typ); Table 1-1, compound 200 μM)",Activation potency on plasminogen compared with the positive compound (Plasminogen (Glu-Typ)),Ma (strength of the blood clot formed) (whole blood of rat; [4]) [mm],"Activation multiples (5 min) (Plasminogen (Glu-Typ); Table 1-2, compound 100 μM)","Activation multiples (5 min) (Plasminogen (Glu-Typ); Table 1-2, compound 150 μM)","Activation multiples (5 min) (Plasminogen (Glu-Typ); Table 1-2, compound 200 μM)",Ma (strength of the blood clot formed) (whole blood of rat; [5]) [mm],recanalization rate after intravenous thrombolysis [1] [%],half-life [2] [min]
"CC(C)=CCC/C(C)=C/CC[C@@]1(C)Oc2c(c(OC(=O)N(C)C)cc3c2CN(CCC[C@@H](C(=O)O)N2Cc4c(cc(OC(=O)N(C)C)c5c4O[C@](C)(CC/C=C(\C)CCC=C(C)C)[C@@H](O)C5)C2=O)C3=O)C[C@@H]1O [Compound 2-1, (S)-2,5-bis((2R,3S)-5-((dimethylcarbamoyl)oxy)-2-((E)-4,8-dimethylnona-3,7-dien-1-yl)-3-hydroxy-2-methyl-7-oxo-3,4,7,9-tetrahydropyrano[2,3-E]isoindol-8(2H)-yl)pentanoic acid]",4.7,superior thrombolytic activity to the positive compound,5.22,15.93,42.97,better activation potency on plasminogen than the positive compounds,,,,,,,
"CC(C)=CCC/C(C)=C/CC[C@@]1(C)Oc2c(c(OC(=O)N3CCS(=O)(=O)CC3)cc3c2CN(CCC[C@@H](C(=O)O)N2Cc4c(cc(OC(=O)N5CCS(=O)(=O)CC5)c5c4O[C@](C)(CC/C=C(\C)CCC=C(C)C)[C@@H](O)C5)C2=O)C3=O)C[C@@H]1O [Compound 2-5, (S)-2,5-bis((2R,3S)-2-((E)-4,8-dimethylnona-3,7-dien-1-yl)-5-((1,1-dioxothiomorpholino-4-carbonyl)oxy)-3-hydroxy-2-methyl-7-oxo-3,4,7,9-tetrahydropyrano[2,3-E]isoindol-8(2H)-yl)pentanoic acid]",,superior thrombolytic activity to the positive compound,,,,better activation potency on plasminogen than the positive compounds,1.9,4.65,52.96,90.00,,,
"CC(C)=CCC/C(C)=C/CC[C@@]1(C)Oc2c(c(O)cc3c2CN(CCC[C@@H](C(=O)O)N2Cc4c(cc(O)c5c4O[C@](C)(CC/C=C(\C)CCC=C(C)C)[C@@H](O)C5)C2=O)C3=O)C[C@@H]1O [Positive compound, reference compound]",72.9,,1.71,2.62,8.62,,73.1,3.02,4.54,12.49,76.4,,
rt-PA: Recombinant tissue plasminogen activator,,,,,,,,,,,,≤ 25,3 to 5
"CC(C)=CCC/C(C)=C/CC[C@@]1(C)Oc2c(c(OC(=O)N3CC[S+]([O-])CC3)cc3c2CN(CCC[C@@H](C(=O)O)N2Cc4c(cc(OC(=O)N5CC[S+]([O-])CC5)c5c4O[C@](C)(CC/C=C(\C)CCC=C(C)C)[C@@H](O)C5)C2=O)C3=O)C[C@@H]1O [Compound 2-6, (S)-2,5-bis((2R,3S)-2-((E)-4,8-dimethylnona-3,7-dien-1-yl)-5-((1-oxothiomorpholino-4-carbonyl)oxy)-3-hydroxy-2-methyl-7-oxo-3,4,7,9-tetrahydropyrano[2,3-E]isoindol-8(2H)-yl)pentanoic acid]",,superior thrombolytic activity to the positive compound,,,,,,,,,8.8,,
"CC(C)=CCC/C(C)=C/CC[C@@]1(C)Oc2c(c(OC(=O)N3CCOCC3)cc3c2CN(CCC[C@@H](C(=O)O)N2Cc4c(cc(OC(=O)N5CCOCC5)c5c4O[C@](C)(CC/C=C(\C)CCC=C(C)C)[C@@H](O)C5)C2=O)C3=O)C[C@@H]1O [Compound 2-2, (S)-2,5-bis((2R,3S)-2-((E)-4,8-dimethylnona-3,7-dien-1-yl)-3-hydroxy-2-methyl-5-((morpholino-4-carbonyl)oxy)-7-oxo-3,4,7,9-tetrahydropyrano[2,3-e]isoindol-8(2H)-yl)pentanoi c acid]",4.7,superior thrombolytic activity to the positive compound,6.66,21.12,42.23,better activation potency on plasminogen than the positive compounds,,,,,,,
